Assay results: patent US20230033195A1, “METHODS AND COMPOSITIONS FOR IMPROVING COGNITIVE FUNCTION” (THE JOHNS HOPKINS UNIVERSITY, priority 2011, published 2023)

How the values were obtained:
aMCI subjects [1] = assay: explicit 3-alternative forced choice task; assay type: in vivo, human; details: 125 mg twice a day for two weeks, vs placebo, p = 0.039
From the text: Each bar represents the proportion of the subjects responses (old, similar, or new) when presented with a lure image.
There are various tests known in the art for assessing cognitive function in humans, for example and without limitation, the clinical global impression of change scale (CIBIC-plus scale); the Mini Mental State Exam (MMSE); the Neuropsychiatric Inventory (NPI); the Clinical Dementia Rating Scale (CDR); the Cambridge Neuropsychological Test Automated Battery (CANTAB); the Sandoz Clinical Assessment-Geriatric (SCAG), the Buschke Selective Reminding Test (Buschke and Fuld, 1974); the Verbal Paired Associates subtest; the Logical Memory subtest; the Visual Reproduction subtest of the Wechsler Memory Scale-Revised (WMS-R) (Wechsler, 1997); or the Benton Visual Retention Test. See Folstein et al., J Psychiatric Res 12: 189-98, (1975); Robbins et al., Dementia 5: 266-81, (1994); Rey, L'examen clinique en psychologie, (1964); Kluger et al., J Geriatr Psychiatry Neurol 12:168-79, (1999); Marquis et al., 2002 and Masur et al., 1994. Another example of a cognitive test in humans is the explicit 3-alternative forced choice task. […]
The activity of the subject's medial temporal lobe is measured by functional MRI during the subject's participation in an explicit 3-alternative forced choice task, where participants view novel, repeated and similar ("lure") stimuli. […]

aMCI subjects [2] = assay: neuropsychological tests outside the scanner; assay type: in vivo, human; details: 125 mg twice a day for two weeks, vs placebo
Method: A within-subjects trial of 8 weeks duration, involving 17 amnestic MCI (aMCI) subjects and 17 age-matched controls with a low dose treatment of levetiracetam is conducted. During the course of the study, each aMCI subject receives both drug and placebo treatments separately in two periods of two weeks each, with the order of treatments among different aMCI subjects counterbalanced (see FIG. 7). Age-matched control subjects treated with placebo serve as a further control. Cognitive testing and fMRI imaging data are obtained from the subjects after each two week period of drug/placebo treatment. All participants undergo neuropsychological evaluation at the time of assessment for treatment efficacy (Visits 1 and 2), as well as at the Baseline Visit. The evaluation occurs outside of the scanner and includes the Buschke Selective Reminding Test (Buschke and Fuld, 1974) and the Verbal Paired Associates subtest, the Logical Memory subtest, the Visual Reproduction subtest of the Wechsler Memory Scale-Revised (WMS-R) (Wechsler, 1997), and the Benton Visual Retention Test, as these tasks are particularly sensitive to medial temporal lobe function and early memory problems (Marquis et al., 2002 and Masur et al., 1994). Additionally, subjects are asked to complete tests of more general cognitive function such as tests to assess general mental status, executive function, attention and general naming ability. All neuropsychological tests are administered by a trained research assistant during a 60-minute session. As the three neuropsychological assessments in this study occur within a time period of 8 weeks, different versions of the neuropsychological tests are used to minimize test specific practice effects. Breaks are provided to the subject as needed.

CC[C@@H](C(N)=O)N1CCCC1=O [levetiracetam, (2S)-2-(2-oxopyrrolidin-1-yl) butanamide]
performance in the explicit 3-alternative forced choice task (similar vs old responses to lures) (aMCI subjects [1]): improves significantly | Benton Visual Rentention Test performance (aMCI subjects [2]): fail to rescue performance | Buschke Selective Reminding Test - Delayed Recall performance (aMCI subjects [2]): fail to rescue performance | Verbal Paired Associates Test - Delayed Recall performance (aMCI subjects [2]): fail to rescue performance | Verbal Paired Associates Test - Recognition performance (aMCI subjects [2]): fail to rescue performance
